Here are results for six molecules from patent US5332742A, “Renin inhibitors” (Abbott Laboratories, priority 1993, dated 1994).

One assay deals with T1, human renal renin (Homo sapiens, UniProt P00797).
T1 construct: human renal renin, free from acid proteolytic activity; from tissue; host or cells: human kidney ('renal')
T1 sequence (P00797 67-406): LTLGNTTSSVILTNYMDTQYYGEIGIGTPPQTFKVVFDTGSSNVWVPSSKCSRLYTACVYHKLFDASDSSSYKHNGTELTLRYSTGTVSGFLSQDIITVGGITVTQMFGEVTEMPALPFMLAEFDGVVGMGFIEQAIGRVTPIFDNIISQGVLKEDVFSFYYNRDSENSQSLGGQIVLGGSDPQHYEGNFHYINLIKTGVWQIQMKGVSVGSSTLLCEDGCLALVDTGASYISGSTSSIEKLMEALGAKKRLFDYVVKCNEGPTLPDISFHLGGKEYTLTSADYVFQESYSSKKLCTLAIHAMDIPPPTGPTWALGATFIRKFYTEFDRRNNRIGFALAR
Kind of assay: In vitro inhibition of human renal renin (angiotensin I formation measured by radioimmunoassay). The assay is classed as biochemical. The following applies: human renal renin with human angiotensinogen, 37 degrees C., pH 6.5. On the procedure:
At the end of the incubation, the amount of angiotensin I formed is measured by radioimmunoassay and the molar concentration required to cause 50% inhibition, expressed as the IC50 is calculated .

The nature of assay [1]: Mean arterial blood pressure in salt-depleted dogs after i.v. or p.o. dosing. As to conditions: salt-depleted male beagle dogs; 10 mg/kg i.v. (in D5W) or 10 mg/kg p.o. (in methylcellulose); FIG. 1A. The assay is classed as in vivo, dog. On the procedure:
(§1) Male beagle dogs (8-12 kg, Marshall/Hazelton) were converted to a salt-depleted status by dosing on the three consecutive days prior to the experiment with furosemide (Phoenix Pharmaceuticals, 10 mg/kg i.m.) and by placing them on a low sodium diet (approximately 2-5 meq/day; H/D; Hills Pet Products). Prior to the study, each dog was instrumented with an indwelling catheter ana conditioned to stand calmly in a restraining sling for periods of up to 8 hours. On the morning of the experiment, the arteriai catheter was connected to a Sorenson Transpac II® pressure transducer (Abbott Laboratories). For dogs receiving intravenous (i.v.) doses, a catheter (Abbott; 16 ga Venocath) was introduced in a rear leg saphenous vein by venipuncture. For dogs receiving receiving oral (p.o.) doses by garage, an 18 Fr. suction catheter (Mallinckrodt Critical Care) was used. Data samples of systemic hemodynamic variables were acquired by the MI2 computer at 5 minute intervals beginning 90 minutes prior to administration of the test compound and ending 6 hours after dosing. Arterial blood smaples (3.0 ml) to determine plasma drug concentrations and plasma renin activity (PRA) were taken for i.v. doses at -60, -30, 3, 10, 30, 60, 120, 240 and 360 minutes an for p.o. doses at --60, -30, 15, 30, 60, 90, 120, 180 and 360 minutes relative to the time of test compound administration. […]

In a further assay the target is T2, renin (Canis lupus familiaris, UniProt Q6DYE7).
T2 construct: from tissue; host or cells: circulating plasma renin of salt-depleted beagle dogs (in vivo)
T2 sequence (Q6DYE7 66-403): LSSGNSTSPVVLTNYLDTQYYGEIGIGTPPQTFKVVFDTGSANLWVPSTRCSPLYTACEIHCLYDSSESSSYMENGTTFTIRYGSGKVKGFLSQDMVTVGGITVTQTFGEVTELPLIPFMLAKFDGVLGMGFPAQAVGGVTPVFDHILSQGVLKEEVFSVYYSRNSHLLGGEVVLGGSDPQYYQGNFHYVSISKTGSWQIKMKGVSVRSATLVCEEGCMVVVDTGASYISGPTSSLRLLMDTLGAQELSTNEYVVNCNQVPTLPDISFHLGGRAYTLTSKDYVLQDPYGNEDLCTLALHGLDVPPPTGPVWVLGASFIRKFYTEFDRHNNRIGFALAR
Kind of assay: Plasma renin activity (PRA) in salt-depleted dogs after i.v. or p.o. dosing. The assay is classed as in vivo, dog. As to conditions: salt-depleted male beagle dogs; 10 mg/kg i.v. (in D5W) or 10 mg/kg p.o. (in methylcellulose); FIG. 1B. The protocol: as §1

By IC50 is commonly meant the concentration that inhibits the measured activity by half. At human renal renin, `CC(C)C[C@H](O)[C@H](O)[C@H](CC1CCCCC1)NC(=O)[C@H](Cc1cscn1)NC(=O)[C@H](Cc1ccccc1)CS(=O)(=O)N1CC[N+](C)([O-])CC1` [Example 10B, (2S)-2-Benzyl-3-(1-methyl-1-oxo-piperazin-4-ylsulfonyl)propionyl-(L)-(4Thiazolyl)Ala Amide of (2S,3R,4S)-2-Amino-1-cyclohexyl-3,4-dihydroxy-6-methylheptane] gave an IC50 of 0.3 nM. On the same count and under the same terms, next, `CC(C)C[C@H](O)[C@H](O)[C@H](CC1CCCCC1)NC(=O)[C@H](Cc1cscn1)NC(=O)[C@H](Cc1ccccc1)CS(=O)(=O)N1CCNCC1` [Example 6D, (2S)-2-Benzyl-3-(piperazin-4-ylsulfonyl)propionyl-(L)-(4-Thiazolyl)Ala Amide of (2 S, 3R, 4S)-2-Amin0-1-cyclohexyl-3,4-dihydroxy-6-methylheptane]: 0.33 nM; `CC(C)C[C@H](O)[C@H](O)[C@H](CC1CCCCC1)NC(=O)[C@H](Cc1cscn1)N(C)C(=O)C(CCc1ccccc1)NS(=O)(=O)N1CCN(C)CC1` (stereo partly drawn) [Example 12F, (4-Methylpiperazin-1-yl) sulfonyl-(Phenylmethyl)alanine-N-Methyl-3-(4-thiazolyl)-L-alanine Amide of (2S,3R,4S)-2-Amino-1-cyclohexyl-3,4-dihydroxy-6-methylheptane]: 0.45 nM.

Turning to `CC(C)C[C@H](O)[C@H](O)[C@H](CC1CCCCC1)NC(=O)[C@H](Cc1cscn1)NC(=O)[C@H](Cc1ccccc1)CS(=O)(=O)N1CCN(C)CC1.CS(=O)(=O)O` [Example 17B, (2S)-2-Benzyl-3-(1-methyl-piperazin-4-ylsulfonyl) propionyl-(L)-(4-Thiazolyl)Ala Amide of (2S,3R,4S)-2-Amino-1-cyclohexyl-3,4-dihydroxy-6-methylheptane methanesulfonate salt], in assay [1], the “mean arterial pressure (MAP)” value is given as “effective for reducing blood pressure”. The “plasma renin activity (PRA)” value on renin is recorded as “inhibits renin in vivo”.

`CC(C)C[C@H](O)[C@H](O)[C@H](CC1CCCCC1)NC(=O)[C@H](Cc1cscn1)NC(=O)[C@H](Cc1ccccc1)CS(=O)(=O)N1CCNC(=O)C1` [Example 11F] yielded an IC50 at human renal renin of 0.28 nM. The same measure, in the same setting: with `CC(C)C[C@H](O)[C@H](O)[C@H](CC1CCCCC1)NC(=O)[C@H](Cc1cscn1)NC(=O)C(Cc1ccccc1)NS(=O)(=O)N1CCN(C)CC1` (stereo partly shown) [Example 13C] the figure was 0.22 nM.
